From US20120070442A1, “METHODS AND COMPOSITIONS FOR TREATING CANCER” (The Regents of the University of Colorado, a body corporate, priority 2007, published 2012)

Tested on: NSCLC
Test: Clinical response and survival of NSCLC patients treated with gefitinib
Format: in vivo, human
Text: After appropriate approval from the institution and written informed consent for comprehensive use of molecular and pathologic analysis was received from each patient, NSCLC specimens were formalin-fixed, paraffin-embedded at Tokyo Medical University, Tokyo, Japan. Information on gender, age, histology, cigarette use, response, and survival was obtained for each patient. Tumor specimens were microdissected under stereoscopic microscopy (LEICA MZ12, Leica Microsystems, Wetzlar, Germany). DNA was extracted from tumor cells with the DNeasy Tissue Kit (Qiagen, Valencia, Calif.).
For all tests, a level of P<0.05 was considered statistically significant. Fisher's exact test for count data was used to analyze proportions among the factors studied. […] In this case, response or stable disease was considered a positive outcome while progressive disease was considered negative. The Kaplan-Meier method was used to estimate the probability of survival as a function of time. […] Significant differences between survival curves were analyzed using the log-rank test. Multivariate analysis of the relative importance of the factors to survival was performed using the Cox proportional-hazards method.
Each sample was analyzed in triplicate on a quantitation run. The ratio of miR-128b to CFTR DNA copies was determined. […]

Compound: COc1cc2ncnc(Nc3ccc(F)c(Cl)c3)c2cc1OCCCN1CCOCC1 [Gefitinib, N-(3-chloro-4-fluoro-phenyl)-7-methoxy-6-(3-morpholin-4-ylpropoxy)quinazolin-4-amine]
- survival after initiation of gefitinib therapy (NSCLC patients with deletion of miR-128b by DNA copy): 23.3 months
- survival after initiation of gefitinib therapy (NSCLC patients without deletion of miR-128b by DNA copy): 10.7 months
